Source: patent US20250304594A1, “METHYL (R)-2-(FLUOROMETHYL)-5-OXO-4-PHENYL-4,5,6,7-TETRAHYDRO-1H-CYCLOPENTA[B]PYRIDINE-3-CARBOXYLATE AND METHYL (R)-2-(FLUOROMETHYL)-5-OXO-4-PHENYL-1,4,5,7-TETRAHYDROFURO[3,4-B]PYRIDINE-3-CARBOXYLATE AS Cav1,2 ACTIVATORS” (Novartis AG, priority 2020, published 2025)

Tested on: cFos mRNA
Experiment: cFos mRNA induction in cortex of wild-type mice (PK-PD)
Format: in vivo, C57BL/6J male mice
Conditions: one hour after administration
Method: Assessment of Compound Exposure—cFos Induction (PK-PD) Relationship in Wild-Type Mice
Compound administration and brain tissue collection. Wild-type C57BL/6J male mice were obtained from Jackson laboratories (Bar Harbor, ME). The acute, single-dose effects of CaV1.2 activators of the present disclosure were evaluated in male eight-week old mice (n=6 mice per compound). Each compound was dissolved in 10% PEG300, 10% Solutol, 10% Cremophore EL, and 70% Phosphate Buffered Saline and administered intraperitoneal (i.p.) at a concentration of 1 mg/kg up to 30 mg/kg depending on the compound. Animals were euthanized one hour after compound administration via exsanguination under deep anesthesia. Blood was collected in EDTA tubes for downstream analysis of drug levels. Brains were rapidly removed from the skull, and the cerebral cortex and cerebellum were regionally dissected. Cerebellar samples were snap frozen in liquid nitrogen to assess compound exposure. Cortical samples for cFos assessment were placed in 500 μl of RNAlater solution (ThermoFisher) to preserve the integrity of RNA in the sample. Samples remained in RNAlater for at least 24 hours at 4° C. before moving to −80° C. for storage before processing.
Quantification of cFos mRNA induction. Tissue homogenization was performed using TissueLyser system for 96 well plates (Qiagen). First, frozen cortical samples were thawed, removed from RNAlater, and placed into TissueLyser tubes along with Buffer RLT containing 0.5% Reagent DX and one 5 mm TissueLyser metal bead. The TissueLyser tubes were loaded into a TissueLyser II tissue homogenizer for 3 rounds of homogenization, with each round lasting 5 minutes at 30 Hz bead-beating frequency. Total RNA was purified from the homogenate using RNeasy 96 Plus kit (Qiagen), RNA concentration and A260/A280 ratio were quantified via the Nanodrop (ThermoFisher), and all samples were normalized to 100 ng/μL concentration. RNA was reverse transcribed into cDNA using the Superscript III First-strand synthesis SuperMix Kit (ThermoFisher). For each sample, 6 μL of RNA (600 ng total) was mixed with 1 μL of Oligo dT and 1 μl of annealing buffer and heated to 65° C. for 5 minutes. Next, 10 μL of 2× First-Strand Reaction Mix and 2 μl of the Enzyme mix were added to achieve a total reaction volume of 20 μL. The samples were heated to 50° C. for 50 minutes then 85° C. for 5 minutes to complete cDNA synthesis.
Quantitative PCR was performed on the cDNA samples using Quantitect Multiplex RT-PCR kit (Qiagen) in a 384-well assay format. Each PCR well contained 2 μl of cDNA (60 ng total), 10 μL of RT-PCR mastermix, 1 μL of cFos FAM Taqman probe (Mm00487425_m1 (FAM) #4351368), 1 μL of GAPDH VIC Taqman probe (Mm99999915-g1 (VIC) #4448486), 0.2 μl of Multiplex RT mix and 5.8 μl of RNase-free water. On the ViiA7 Real-Time PCR system (ThermoFisher), the samples were heated to 95° C. for 15 minutes then cycled between 94° C. for 45 seconds and 60° C. for 45 seconds for 45 cycles. cFos Ct values were exported, normalized to GAPDH Ct values, and converted to relative fold change in expression using the delta-delta Ct relative quantification method. cFos fold changes between compound treatments and vehicle were analyzed by one-way ANOVA, followed by Tukey's post-hoc comparisons.

Row | Structure (SMILES) | %↑cFOS mRNA cortex (3 mg/kg ip) [%] | %↑cFOS mRNA cortex (10 mg/kg ip) [%]
1 | COC(=O)C1=C(CF)NC2=C(C(=O)OC2)[C@H]1c1cccc(F)c1[C@H]1CC1(F)F (single isomer, unassigned) [Example 1, methyl (R)-4-(2-((R or S)-2,2-difluorocyclopropyl)-3-fluorophenyl)-2-(fluoromethyl)-5-oxo-1,4,5,7-tetrahydrofuro[3,4-b]pyridine-3-carboxylate] | 254 | 
2 | COC(=O)C1=C(CF)NC2=C(C(=O)OC2)[C@H]1c1cccc(F)c1C1CC1 (single isomer, unassigned) [Example 2] | 378 | 
3 | COC(=O)C1=C(CF)NC2=C(C(=O)OC2)[C@H]1c1cc(F)cc(F)c1[C@H]1CC1(F)F (single isomer, unassigned) [Example 3, Methyl (R)-4-(2-((R or S)-2,2-difluorocyclopropyl)-3,5-difluorophenyl)-2-(fluoromethyl)-5-oxo-1,4,5,7-tetrahydrofuro[3,4-b]pyridine-3-carboxylate] | 204 | 
4 | COC(=O)C1=C(CF)NC2=C(C(=O)OC2)[C@H]1c1cc(F)cc(F)c1[C@H]1CC1(F)F (single isomer, unassigned) [Example 4, Methyl (R)-4-(2-((R or S)-2,2-difluorocyclopropyl)-3,5-difluorophenyl)-2-(fluoromethyl)-5-oxo-1,4,5,7-tetrahydrofuro[3,4-b]pyridine-3-carboxylate] | 161 | 
5 | COC(=O)C1=C(CF)NC2=C(C(=O)OC2)[C@H]1c1cc(F)cc(F)c1[C@H](C)F (single isomer, unassigned) [Example 5, methyl (R)-4-(3,5-difluoro-2-((R or S)-1-fluoroethyl)phenyl)-2-(fluoromethyl)-5-oxo-1,4,5,7-tetrahydrofuro[3,4-b]pyridine-3-carboxylate] | 400 | 
6 | COC(=O)C1=C(CF)NC2=C(C(=O)OC2)[C@H]1c1cccc(F)c1[C@H](F)CF (single isomer, unassigned) [Example 6] | 199 | 
7 | COC(=O)C1=C(CF)NC2=C(C(=O)CC2)[C@H]1c1cccc(F)c1[C@@H](F)CF (single isomer, unassigned) [Example 7, methyl (R)-4-(2-((R or S)-1,2-difluoroethyl)-3-fluorophenyl)-2-(fluoromethyl)-5-oxo-4,5,6,7-tetrahydro-1H-cyclopenta[b]pyridine-3-carboxylate] | 262 | 
8 | COC(=O)C1=C(CF)NC2=C(C(=O)OC2)[C@H]1c1cccc(F)c1[C@@H](C)F (single isomer, unassigned) [Example 8] | 496 | 
9 | COC(=O)C1=C(CF)NC2=C(C(=O)OC2)[C@H]1c1ccccc1OC(F)F (single isomer, unassigned) [Example 9] | 290 | 525
10 | COC(=O)C1=C(CF)NC2=C(C(=O)OC2)[C@H]1c1cc(F)cc(F)c1C(F)(F)F (single isomer, unassigned) [Example 10] | 225 | 
11 | COC(=O)C1=C(CF)NC2=C(C(=O)OC2)[C@H]1c1cccc(F)c1CC(F)F (single isomer, unassigned) [Example 11] | 160 | 
12 | COC(=O)C1=C(CF)NC2=C(C(=O)OC2)[C@H]1c1cc(F)cc(F)c1C1CC1 (single isomer, unassigned) [Example 13] | 225 | 444
13 | COC(=O)C1=C(CF)NC2=C(C(=O)OC2)[C@H]1c1cccc(F)c1C(F)F (single isomer, unassigned) [Example 15] | 176 | 294
14 | COC(=O)C1=C(CF)NC2=C(C(=O)OC2)[C@H]1c1cc(F)cc(F)c1[C@H](F)CF (single isomer, unassigned) [Example 16, methyl (R)-4-(2-((R or S)-1,2-difluoroethyl)-3,5-difluorophenyl)-2-(fluoromethyl)-5-oxo-1,4,5,7-tetrahydrofuro[3,4-b]pyridine-3-carboxylate] | 234 | 
15 | COC(=O)C1=C(CF)NC2=C(C(=O)OC2)[C@H]1c1cccc(F)c1C(F)(F)F (single isomer, unassigned) [Example 17] | 201 | 
16 | COC(=O)C1=C(CF)NC2=C(C(=O)OC2)[C@H]1c1cc(F)cc(F)c1C(F)F (single isomer, unassigned) [Example 18] | 173 | 280
17 | COC(=O)C1=C(CF)NC2=C(C(=O)OC2)[C@H]1c1cc(F)ccc1C(F)(F)F (single isomer, unassigned) [Example 23] | 365 | 
18 | COC(=O)C1=C(CF)NC2=C(C(=O)CC2)[C@H]1c1cccc(F)c1C1CC1 (single isomer, unassigned) [Example 28] | 293 | 
